The values below come from US20240131168A1, “NAPHTHALENE RING-CONTAINING COMPOUND, PHARMACEUTICAL COMPOSITION CONTAINING SAME, AND USE THEREOF” (JIANGSU YAHONG MEDITECH CO., LTD., priority 2021, published 2024).

Holding throughout (type): cell-based
The subject of one assay is MCF-7. Description: CellTiter-Glo cell proliferation inhibition, MCF-7 (Effect Example 2). The note with it: Homo sapiens, MCF7, 144 h, MCF-7 (CTG), 6 days, starting concentration 10 μM; for inhibition at up to 10 µM: read-out: IH % max (maximum inhibition percentage). From the text:
(§1) 1. Cell line • (1) Breast cancer cell lines and their culture media: • MCF-7 (ATCC; Cat. No.: HTB-22), a Luminal A breast cancer cell; • TamR-MCF-7 (ATCC; Cat. No.: CRL-3435), a breast cancer cell; • MCF-7 ER^D538G: a Luminal A breast cancer cell obtained by constructing MCF-7 (ATCC; Cat. No.: HTB-22) using CRISPR-Cas9 gene editing technology; • MCF-7 ER^Y537S: a Luminal A breast cancer cell obtained by constructing MCF-7 (ATCC; Cat. No.: HTB-22) using CRISPR-Cas9 gene editing technology; • MDA-MB-231: (manufacturer: Nanjing CoBioer Biosciences Co., Ltd.), a triple-negative breast cancer cell; • MDA-MB-468: (manufacturer: Nanjing CoBioer Biosciences Co., Ltd.), a triple-negative breast cancer cell.
(§2) Herein, the culture medium of MCF-7, TamR-MCF-7, MCF-7 ER^D538G, and MCF-7 ER^Y537S was EMEM; • the culture medium of MDA-MB-231 and MDA-MB-468 was DMEM.
(§3) 2. Reagents • Culture medium EMEM (Gibco, 1964507) • Culture medium DMEM (Gibco, 12430-054) • Fetal bovine serum (Gibco, 10091148) • Penicillin-streptomycin double antibody (Gibco, S110JV) • DPBS (Gibco, 14190-144) • CellTiter-Glo® assay kit (Promega, G7573) • Trypsin (0.25%) (Gibco, 25200-056) • DMSO (Sigma, D2650)
(§4) 3. Instruments • Biosafety cabinet (AIRTECH, BSC-1300A II) • Automated cell counter (Life Technologies, countess II) • Multifunctional microplate reader (Biotek, H1FM) • Orbital shaker (Hangzhou Allsheng Instruments Co., Ltd., OS-100) • XLFIT 5.3 (Inforstack Shanghai Co., Ltd.)
(§5) For this test method, the following experiments were performed in a biosafety cabinet, with the specific steps as follows: • (1) Cells were inoculated in a 96-well plate. One day later, the previous culture medium was poured off, 5 mL of DPBS was added to wash the cells, and then DPBS was pipetted and discarded. An appropriate amount of trypsin was then added. The plate was digested in a 37° C., 5% CO2 cell incubator for about 2 to 5 minutes and then taken out. Anew corresponding culture medium was added, and pipetted up and down to resuspend the cells evenly. The cells were then counted using an automated cell counter. • (2) Each cell was inoculated in columns 1 to 11 of a 96-well plate (Corning, Cat. No.: 3610) at a density of 1,000 or 2,000 cells per well in 100 μL of culture medium, and 100 μL of the corresponding culture medium without cells was added to the wells in column 12. The plate was then placed in a 37° C., 5% CO2 incubator for 24 hours. • (3) The compound of the present disclosure and the control drug fulvestrant (Selleck; Cat. No.: S1191) were then 4-fold serially diluted to 10 dose points starting at 10 μM. 10 μL of the serially diluted compound was pipetted and added to 100 μL of cells in columns 1 to 10, and 10 μL of the corresponding culture medium containing 0.33 v % DMSO was added to both columns 11 and 12. The plate was incubated in a 37° C., 5% CO2 incubator for 6 days or 72 hours (Note: column 11 was used as a MAX well with cells but without compound; column 12 was used as a MIN well without cells […]). • (4) The cell viability detection reagent in the CellTiter-Glo® assay kit was then added to the 96-well plate at 50 μL per well according to the instructions, and shaken on an orbital shaker in the dark for 5 to 10 minutes. The cell viability was then measured using a multifunctional microplate reader. Finally, the inhibition of cell proliferation by the compound of the present disclosure was plotted by XLFIT software, and the IC50 value (half inhibitory concentration) and the IH % max (maximum inhibition percentage) of the compound of the present disclosure were calculated.
In general terms: ATP-based viability assays read luminescence as a measure of living cells.

Another assay relates to MDA-MB-468. Description: CellTiter-Glo cell proliferation inhibition, MDA-MB-468. The note with it: Homo sapiens, 144 h, MDA-MB-468 (CTG), 6 days, starting concentration 10 μM; for inhibition at up to 10 µM: read-out: IH % max (maximum inhibition percentage).
Excerpt: as §1, §2, §3, §4, §5
Compounds D64 to D69 were tested for MDA-MB-231 (CTG) and MDA-MB-468 (CTG) with an incubation time of 72 hours in the incubator.

The subject of a further assay is MCF-7 ER^D538G. Description: CellTiter-Glo cell proliferation inhibition, MCF-7 ER^D538G. The settings on record: Homo sapiens, MCF7, 144 h; MCF-7 ER^D538G (CTG), 6 days, starting concentration 10 μM; read-out: IH % max (maximum inhibition percentage).
Excerpt: as §1, §2, §3, §4, §5

The structures appear in SMILES notation.

The inhibition is the relative decrease from the control value, in per cent. One may read the IC50 as the concentration needed to halve the response being measured. `COc1ccc2c(Oc3ccc(OCCN4CCN(c5ccc6c(c5)CN(C5CCC(=O)NC5=O)C6=O)CC4)cc3)c(-c3ccc(S(C)(=O)=O)cc3)ccc2c1` (stereo not shown) [Compound D3, 3-(5-(4-(2-(4-((6-methoxy-2-(4-(methylsulfonyl)phenyl)naphthalen-1-yl)oxy)phenoxy)ethyl)piperazin-1-yl)-1-oxoisoindolin-2-yl)piperidine-2,6-dione]: the inhibition at up to 10 µM in the assay with MCF-7 is 30%. In the assay with MDA-MB-468, half-maximal inhibition (IC50) was put at 18.6 nM and the inhibition at up to 10 µM is 73%.

Turning to `CS(=O)(=O)c1ccc(-c2ccc3cc(O)ccc3c2Oc2ccc(OCCCCN3CCN(c4ccc5c(c4)C(=O)N(C4CCC(=O)NC4=O)C5=O)CC3)cc2)cc1` (stereo not shown) [Compound D13, 2-(2,6-dioxopiperidin-3-yl)-5-(4-(4-(4-((6-hydroxy-2-(4-(methylsulfonyl)phenyl)naphthalen-1-yl)oxy)phenoxy)butyl)piperazin-1-yl)isoindoline-1,3-dione], the inhibition at up to 10 µM with MCF-7 came out at 34%.

Regarding `CS(=O)(=O)c1ccc(-c2ccc3cc(O)ccc3c2Oc2ccc(OCCOCCOCCOCCNc3cccc4c3CN(C3CCC(=O)NC3=O)C4=O)cc2)cc1` (stereo not shown) [Compound D20, 3-(4-((2-(2-(2-(2-(4-((6-hydroxy-2-(4-(methylsulfonyl)phenyl)naphthalen-1-yl)oxy)phenoxy)ethoxy)ethoxy)ethoxy)ethyl)amino)-1-oxoisoindolin-2-yl)piperidine-2,6-dione], the inhibition at up to 10 µM in the assay on MCF-7 was determined as 38%.

Turning to `CS(=O)(=O)c1ccc(-c2ccc3cc(O)ccc3c2Oc2ccc(OCCOCCOCCOCCNc3ccc4c(c3)C(=O)N(C3CCC(=O)NC3=O)C4)cc2)cc1` (stereo not shown) [Compound D29], the inhibition at up to 10 µM with MCF-7 and in the assay with MCF-7 ER^D538G was 47% each time.

In the case of `CS(=O)(=O)c1ccc(-c2ccc3cc(O)ccc3c2Oc2ccc(OCCOCCOCCN3CCN(c4cccc5c4CN(C4CCC(=O)NC4=O)C5=O)CC3)cc2)cc1` (stereo not shown) [Compound D37, 3-(4-(4-(2-(2-(2-(4-((6-hydroxy-2-(4-(methylsulfonyl)phenyl)naphthalen-1-yl)oxy)phenoxy)ethoxy)ethoxy)ethyl)piperazin-1-yl)-1-oxoisoindolin-2-yl)piperidine-2,6-dione], the values for the inhibition at up to 10 µM in the assay on MCF-7 and in the assay with MCF-7 ER^D538G were 49% and 52%, respectively.

Regarding `CS(=O)(=O)c1ccc(-c2ccc3cc(O)ccc3c2Oc2ccc(OCCOCCN3CCN(c4ccc5c(c4)C(=O)N(C4CCC(=O)NC4=O)C5)CC3)cc2)cc1` (stereo not shown) [Compound D43, 3-(6-(4-(2-(2-(4-((6-hydroxy-2-(4-(methylsulfonyl)phenyl)naphthalen-1-yl)oxy)phenoxy)ethoxy)ethyl)piperazin-1-yl)-1-oxoisoindolin-2-yl)piperidine-2,6-dione], the inhibition at up to 10 µM in the assay with MCF-7 and with MCF-7 ER^D538G was 36% in each case.

Consider `CCN(CCOCCOCC(=O)N1CCN(c2ccc3c(c2)C(=O)N(C2CCC(=O)NC2=O)C3)CC1)CCOc1ccc(Oc2c(-c3ccc(S(C)(=O)=O)cc3)ccc3cc(O)ccc23)cc1` (stereo not shown) [Compound D44], for which the inhibition at up to 10 µM is 33% with MCF-7 and 52% in the assay on MCF-7 ER^D538G.

As to `CCN(CCOCCOCC(=O)N1CCN(c2ccc3c(c2)CN(C2CCC(=O)NC2=O)C3=O)CC1)CCOc1ccc(Oc2c(-c3ccc(S(C)(=O)=O)cc3)ccc3cc(O)ccc23)cc1` (stereo not shown) [Compound D46], the inhibition at up to 10 µM worked out at 34% with MCF-7 and 46% with MCF-7 ER^D538G.

For `CCN(CCOCC(=O)N1CCN(c2ccc3c(c2)C(=O)N(C2CCC(=O)NC2=O)C3)CC1)CCOc1ccc(Oc2c(-c3ccc(S(C)(=O)=O)cc3)ccc3cc(O)ccc23)cc1` (stereo not shown) [Compound D50], in the assay with MCF-7, the inhibition at up to 10 µM worked out at 48.4%.

On to `CCN(CCOCCN1CCN(c2ccc3c(c2)C(=O)N(C2CCC(=O)NC2=O)C3)CC1)CCOc1ccc(Oc2c(-c3ccc(S(C)(=O)=O)cc3)ccc3cc(O)ccc23)cc1` (stereo not shown) [Compound D51], for which, in the assay with MCF-7, inhibition was half-maximal at 143 nM (IC50) and the inhibition at up to 10 µM was 52.9%.

Consider `CS(=O)(=O)c1ccc(-c2ccc3cc(O)ccc3c2Oc2ccc(OCCN3CCN(c4cccc5c4CN(C4CCC(=O)NC4=O)C5=O)CC3)cc2)cc1` (stereo not shown) [Compound D53, 3-(4-(4-(2-(4-((6-hydroxy-2-(4-(methylsulfonyl)phenyl)naphthalen-1-yl)oxy)phenoxy)ethyl)piperazin-1-yl)-1-oxoisoindolin-2-yl)piperidine-2,6-dione], for which the inhibition at up to 10 µM with MCF-7 is 49.7%; in the assay on MDA-MB-468, 99.2%.

Regarding `CS(=O)(=O)c1ccc(-c2ccc3cc(O)ccc3c2Oc2ccc(OCC(=O)N3CCN(c4ccc5c(c4)CN(C4CCC(=O)NC4=O)C5=O)CC3)cc2)cc1` (stereo not shown) [Compound D54, 3-(5-(4-(2-(4-((6-hydroxy-2-(4-(methylsulfonyl)phenyl)naphthalen-1-yl)oxy)phenoxy)acetyl)piperazin-1-yl)-1-oxoisoindolin-2-yl)piperidine-2,6-dione], in the assay on MCF-7, 13.2 nM corresponded to half-maximal inhibition (IC50) and the inhibition at up to 10 µM amounted to 96.5%.

As for `CCN(CCOc1ccc(Oc2c(-c3ccc(S(C)(=O)=O)cc3)ccc3cc(O)ccc23)cc1)CCN1CCN(c2ccc3c(c2)C(=O)N(C2CCC(=O)NC2=O)C3)CC1` (stereo not shown) [Compound D56], the inhibition at up to 10 µM in the assay with MCF-7 was found to be 55.6%.

`COc1ccc2c(Oc3ccc(OCCCCN4CCN(c5ccc6c(c5)CN(C5CCC(=O)NC5=O)C6=O)CC4)cc3)c(-c3ccc(S(C)(=O)=O)cc3)ccc2c1` (stereo not shown) [Compound D58, 3-(5-(4-(4-(4-((6-methoxy-2-(4-(methylsulfonyl)phenyl)naphthalen-1-yl)oxy)phenoxy)butyl)piperazin-1-yl)-1-oxoisoindolin-2-yl)piperidine-2,6-dione]: the inhibition at up to 10 µM with MCF-7 is 39%.

For `CCN(CCOCCOCCOCCNc1ccc2c(c1)C(=O)N(C1CCC(=O)NC1=O)C2=O)CCOc1ccc(Oc2c(-c3ccc(S(C)(=O)=O)cc3)ccc3cc(O)ccc23)cc1` (stereo not shown) [Compound D62, 2-(2,6-dioxopiperidin-3-yl)-5-((3-ethyl-1-(4-((6-hydroxy-2-(4-(methylsulfonyl)phenyl)naphthalen-1-yl)oxy)phenoxy)-6,9,12-trioxa-3-azatetradecan-14-yl)amino)isoindoline-1,3-dione], the inhibition at up to 10 µM with MCF-7 came out at 45.1%; in the assay with MDA-MB-468 it was 98.5%.

Turning to `CCN(CCCCCCCCCc1ccc2c(c1)C(=O)N(C1CCC(=O)NC1=O)C2=O)CCOc1ccc(Oc2c(-c3ccc(S(C)(=O)=O)cc3)ccc3cc(O)ccc23)cc1` (stereo not shown) [Compound D63, 2-(2,6-dioxopiperidin-3-yl)-5-(9-(ethyl(2-(4-((6-hydroxy-2-(4-(methylsulfonyl)phenyl)naphthalen-1-yl)oxy)phenoxy)ethyl)amino)nonyl)isoindoline-1,3-dione], in the assay with MCF-7, the IC50 stood at 153 nM and the inhibition at up to 10 µM was found to be 98.9%.
